Values after ≈ are worked out from the molar mass of the structure shown.
Assays:
[1] = Solubility comparison of ZYS-1 and PAC-1 needle crystal (HPLC); format: physicochemical; conditions: room temperature
Protocol: The appropriate amounts of ZYS-1 and PAC-1 needle crystal were dissolved into the appropriate amount of methanol, absolute ethanol, 95% ethanol, acetonitrile, ethyl ether, ethyl acetate, propanol, acetone, respectively, and sonicated for 1 hour, then left at room temperature for 24 hours to obtain the oversaturated solution. After centrifugation at 4000 r/min for 5 min, the supernatant was diluted appropriately and filtered through a 0.45 μm needle filter. The concentration was determined by HPLC and the solubility was calculated.

[2] = In vivo pharmacokinetic comparison in rats
Protocol: Twelve male Wistar rats were randomly divided into ZYS-1 group and PAC-1 group. These rats were fasted for 12 hours before administration, and fed water freely. After ZYS-1 and PAC-1 needle crystal were given at the dose of 60 mg/Kg, 0.5 mL orbital blood was collected at 0, 5, 20, 30, 45, 60, 120, 180, 240, 360, 480, 720 mins, centrifuged at 5000 r/min for 5 min. 200 μL plasma was taken. The plasma was added 3 mL acetone and vortexed for 1 min. After centrifuging at 15000 r/min for 5 min, the supernatant was collected and dried under nitrogen at 37° C., to which 200 μL acetonitrile was added to be reconstituted. After sonication for 10 min, the mixture was vortexed for 1 min, and filtered through 0.45 microporous filter membrane. The filtrate was tested by HPLC, and the plasma concentration at each time point was calculated.

[3] = test system: HGC-27 cells; experiment: Three-dimensional migration (Transwell assay), HGC-27; format: cell-based; conditions: for Cell number (transmembrane cells): 24 h, n = 9
Protocol: (§1) Starved cells were digested and collected, which were suspended in serum-free medium. The cell intensity was adjusted into 3×10^5 s cells/mL. 100 μL of the cell suspension was added into the upper chamber and 700 μL of medium with 10% serum to the lower chamber per well. According to the experimental design, 50 μL serum-free medium was added per well for the control group, 50 μL of drug-containing serum-free medium was added for the administration groups. They were continued to be cultured in the incubator for another 24 h. The upper chamber was taken, with methanol fixation for 30 min, dyed with Giemsa stain for 30 min, rinsed with clean water twice. The cells on the bottom membrane surface of the upper chamber were carefully wiped off with a wet cotton swab, dried in the air. With the bottom up, they were transferred onto glass slide and sealed with neutral gum. Under the microscope, nine random fields were taken and the transmembrane cells therein were counted. The average values were statistically calculated.

[4] = test system: HT-1080 cells; experiment: Three-dimensional migration (Transwell assay), HT-1080; format: cell-based, human; conditions: for Cell number (transmembrane cells): 24 h, n = 9
Protocol: as §1

[5] = test system: HUVEC; experiment: HUVEC tubule formation assay; format: cell-based
Protocol: Tubule formation assay: the matrigel was thawed at 4° C. overnight, which was 1:1 diluted with serum-free ECM medium and coated onto 96-well plates. The diluted matrigel was sucked by precooled pipette gun tip, which was added into pre-cooled 96-well plates, with 50 μL per well. The matrigel was placed on ice for 5 min to make the matrigel surface level, and then the 96-well plates were put into a cell incubator at 37° C. for 1 h to cause gel coagulation. Trypsinize cells, the cells were counted and diluted with ECM medium. The cell density was adjusted to […], and the cells were seeded into coated 96-well plates with 100 μL per well. According to the MTT results, the ZYS-1 solution at different concentrations were formulated. 100 μL of the solutions were taken and added into the cell-seeded wells to make the final concentration at 2, 1, 0.5 μM. At the same time, the positive control was set as recombinant human endostatin (Endostar) and the negative control as without drugs but medium only. Each concentration of the experimental groups and the control groups all were set three replicates, which were placed and cultured in the incubator. After culturing 18 h, the culture was observed under microscope and taken the pictures to record the circumference, area of the generated tubes and the number of nodes as indicators for the formation of tubule. […]

[6] = test system: XIAP; experiment: XIAP protein expression in HGC-27 cells (immunofluorescence); format: cell-based; conditions: n = 6
Protocol: The sterilized cell transfer membrane was taken and placed into a 24-well plate, which was seeded with 1 mL (1×10^5 cells/mL) cell suspension, and cultured for 24 h. Drug-containing medium was added, The negative control groups and administration groups were set, with the experimental groups intervened for 24-48 h. The plate was washed with PBS, and fixed with 4% paraformaldehyde for 15 min. It was treated with 0.1% TritonX-100, and washed with PBS, blocked with 1:10 diluted normal serum blocking solution for 15 min. The plate was added 1:100 diluted primary antibody, placed at 4° C. overnight. The plate was washed with PBS, to which 1:100 diluted secondary antibodies was added and incubated at room temperature for 30 min. The plate was washed with PBS, to which 1:100 diluted SABC-FITC was added, and re-incubated at room temperature for additional 30 min. The unbound FITC was washed with PBS. We observed and taken pictures under fluorescence microscope, and analyzed the fluorescence intensity by Bioflux Montage software. 6 fields were selected randomly under microscope for each group and the integral optical density value of cells was calculated.

[7] = Solubility comparison of ZYS-1 and PAC-1 needle crystal (HPLC); format: physicochemical; conditions: Water, room temperature
[8] = male Wistar rats, 60 mg/Kg, n = 6
[9] = Homo sapiens, HGC-27, 24 h, read-out: Inhibition Rate
[10] = Homo sapiens, HT-1080, 24 h, read-out: Inhibition Rate

Q: Which results are given for C=CCc1cccc(/C=N/NC(=O)CN2CCN(Cc3ccccc3)CC2)c1O [ZYS-1, 1-Piperazineacetic acid, 4-(phenylmethyl)-2-[[2-hydroxy-3-(2-propen-1-yl)phenyl]methylene]]?
A: Solubility ([1]; 95% ethanol): 18.51 mg/mL (≈ 47.2 mM); Solubility ([1]; Absolute ethanol): 23.53 mg/mL (≈ 59.9 mM); Solubility ([1]; Acetone): 128.97 mg/mL (≈ 329 mM); Solubility ([1]; Acetonitrile): 28.74 mg/mL (≈ 73.2 mM); Solubility ([1]; Chloroform): 344.73 mg/mL (≈ 878 mM); Solubility ([1]; Diethyl ether): 6.31 mg/mL (≈ 16.1 mM); Solubility ([1]; Ethyl acetate): 40.08 mg/mL (≈ 102 mM); Solubility ([1]; Methanol): 35.15 mg/mL (≈ 89.6 mM); Solubility ([1]; Propanol): 25.55 mg/mL (≈ 65.1 mM); MRT(0-∞) [2, 8]: 420.4914 ± 271.8423 h; T½ka [2, 8]: 22.9129 ± 6.3243 h; T½α [2, 8]: 209.5239 ± 129.5666 h; V/F [2, 8]: 0.0308 ± 0.0167 L; ka [2, 8]: 0.0324 ± 0.0098 h⁻¹; ke [2, 8]: 0.0048 ± 0.0033 h⁻¹; lagtime [2, 8]: 4.6861 ± 5.2184 h; AUC(0-inf) ([2]; male, Wistar, rat, plasma, 60 mg/kg, n = 6): 724 ± 207 µg·h/mL; AUC ([2]; male, Wistar, rat, plasma, 60 mg/kg, n = 6, read-out: AUC(0-tn)): 389 ± 136 µg·h/mL; Cmax ([2]; male, Wistar, rat, plasma, 60 mg/kg, n = 6, read-out: Cmax): 2190 ± 127 ng/mL; MRT ([2]; male, Wistar, rat, plasma, 60 mg/kg, n = 6, read-out: MRT(0-tn)): 167 ± 51.5 h; Tmax ([2]; male, Wistar, rat, plasma, 60 mg/kg, n = 6, read-out: Tmax): 65 ± 9.44 h; Cell number (transmembrane cells) ([3]; 2 μM): 33.00 ± 10.00; Cell number (transmembrane cells) ([3]; 4 μM): 26.30 ± 13.37; Cell number (transmembrane cells) ([3]; 8 μM): 22.44 ± 9.82; inhibition at 2 µM [3, 9]: 24.6%; inhibition at 4 µM [3, 9]: 39.9%; inhibition at 8 µM [3, 9]: 48.7%; Cell number (transmembrane cells) ([4]; 2 μM): 24.67 ± 8.46; Cell number (transmembrane cells) ([4]; 4 μM): 16.58 ± 4.18; Cell number (transmembrane cells) ([4]; 8 μM): 16.08 ± 5.07; inhibition at 2 µM [4, 10]: 33.5%; inhibition at 4 µM [4, 10]: 55.3%; inhibition at 8 µM [4, 10]: 56.6%; inhibition of tubule formation compared with positive control 2.5 μg/mL Endostar ([5]; 2 μM ZYS-1 group): similar; effect on formation of endothelial cell tubules induced in vitro ([5]; 2, 1, 0.5 μM, 18 h): strong inhibitory effect; XIAP protein expression (integral optical density value) ([6]; 4 μM): 38.22 ± 0.81; XIAP protein expression (integral optical density value) ([6]; 8 μM): 36.27 ± 1.03; Solubility [7]: 0.0056 mg/mL (≈ 0.0143 mM)
